{"source": "patent US20250302846A1", "about": "“ANTIBIOTIC COMPOSITION AND METHODS OF USE THEREOF” (THE REGENTS OF THE UNIVERSITY OF COLORADO A BODY CORPORATE, priority 2022, published 2025)", "format_in_all_cases": "cell-based", "key": {"E. coli K-12 ΔtolC": {"tested_on": "E. coli K-12 ΔtolC", "assay": "Minimum inhibitory concentration determination in broth", "conditions": "for MIC50: Escherichia coli", "protocol": "Bacterial Strains: S. Typhimurium (SL1344), S. Typhimurium (14028s, ATCC), S. Typhimurium ΔacrAB (ALR1257), E. coli (K-12 derivative BW25113 (wild-type)), E. coli K-12 AtolC (JP313 delta tolC; also called AD3644 and JLD1285).\nMinimum inhibitory concentration determination: Overnight LB-grown cultures were diluted in LB or MHB to an optical density (OD600) of 0.01 and distributed into polystyrene 96-well flat-bottom plates (Greiner, 655185). […] The final DMSO concentration was at or below 2%. Where indicated, PMB [0.5 μg/mL] was added prior to D66. Plates were grown at 37° C. with shaking and OD600 was monitored (BioTek Synergy H1 or BioTek Eon). MICs were defined as the concentration at which 95% of growth was inhibited (OD600)."}, "S. Typhimurium": {"tested_on": "S. Typhimurium", "assay": "Propidium iodide membrane barrier assay", "protocol": "FIG. 3A-F. D66 rapidly perturbs the bacterial cytoplasmic membrane with minor disruption of barrier function. Mid-log phase S. Typhimurium cells grown in LB with 0.5 μg/mL PMB were used for all experiments. A) Cell membrane potential was monitored with the fluorescent dye DiSC3 (5). Cells were treated at time 0 with DMSO, JD1 [70 μM], or D66. Data were normalized to DMSO at time 0 and corrected for the quenching effect of D66 (FIG. 6A, B) B) Cell membrane permeability was monitored by PI fluorescence. Cells were treated at time 0 with DMSO, SDS [0.005%] or D66. Samples were processed at the time points shown. A one-way ANOVA with a Dunnet's multiple comparison test, * P<0.005. C-F) Growth curves and kill-curves of cells treated at time 0 with either DMSO or D66. Culture aliquots were monitored for OD600 (C, E) or plated for enumeration of CFU (D, F). Data are presented as fold change. Mean and SEM of three biological replicates with technical triplicates are shown in all panels.\nPropidium iodide membrane barrier assays: Compound, DMSO, or SDS was added to mid-log phase cells to the desired concentration, and cultures were sampled at 0, 10, 15, 20, 30 and 45 minutes. Five minutes before harvesting, PI [10 μg/mL] (Life Technologies) was added. Cells were pelleted, washed twice, resuspended in PBS, and monitored (ex535/em617 nm) using a BioTek Synergy H1 plate reader."}, "RAW 264.7 cells": {"tested_on": "RAW 264.7 cells", "assay": "LDH release assay", "protocol": "FIG. 5A-C. […] Mice were euthanized 48 hours after infection. […] Significance was determined by Mann-Whitney.\nLDH assays: An LDH-cytotoxicity assay kit (Abcam ab65393) was used according to the manufacturer's instructions. RAW 264.7 cells were seeded and remained uninfected or with infected as described for the CFU assay with SL1344."}, "Bacillus subtilis": {"tested_on": "Bacillus subtilis", "assay": "Growth inhibition in broth (MIC95)", "protocol": "FIG. 8A-B. D66 inhibits the growth of Gram-positive bacteria in broth. A) Dose response curves monitoring staphylococcal and B. subtills growth in the presence of D66 from an OD600 of 0.01, normalized to growth in 2% DMSO after 18 hours. Mean and SEM of at least three biological replicates performed with technical triplicates. B) Table of D66 concentrations that inhibit growth. For comparison, S. Typhimurium is included.\nA) D66 quenches the fluorescent dye DiSC3 (5) in a dose-dependent manner. Data were normalized to DMSO at time 0. Relative fluorescent units (RFU). Mean and SEM of three biological replicates performed with technical triplicates. B, C) Mid-log phase S. aureus (FDA209) in LB were treated at time 0 with DMSO, gramicidin [2 μg/mL], or D66 (1x MIC95=130 μM). B) Fold change in RFU. Data are normalized to DMSO at time 0. C) Data normalized to account for the quenching effect of D66 on DiSC3 (5) observed in A. Mean and SEM of three biological replicates performed with technical triplicates. D) Bacillus subtilis expressing mNeonGreen-FtsZ at stationary phase in LB were placed on agar pads containing D66 at the indicated concentration (1x MIC95=89 μM). Confocal microscope images were taken after 15 minutes to ascertain whether D66 disrupted the septal localization of FtsZ."}, "S. aureus FDA209": {"tested_on": "S. aureus FDA209", "assay": "Growth curves and kill curves of mid-log phase S. aureus", "protocol": "FIG. 9A-B. D66 is bactericidal to mid-log phase S. aureus. A) Growth curves and B) kill-curves. Mid-log phase cultures of S. aureus FDA209 were treated at time 0 with either DMSO or the indicated concentration of D66 (1x MIC95=130 μM). Cultures were monitored for OD600 and plated for enumeration of colony forming units (CFU). Data are presented as fold change. Mean and SEM of three biological replicates performed with technical triplicates."}, "[1]": {"tested_on": "staphylococcal persister cells", "assay": "Staphylococcal persister cell viability in broth", "conditions": "overnight cultures in broth, D66 at MIC95", "protocol": "A-D) Overnight cultures of the indicated strains were treated at time 0 with DMSO, ciprofloxacin [4 μg/mL], vancomycin [10 μg/mL], or the corresponding MIC95 concentration of D66 (1x MIC95=130 μM, 49 μg/mL). Cultures were plated for enumeration of CFU at time points indicated. Mean and SEM of three biological replicates. E) RAW 264.7 macrophage-like cells and HeLa cells were infected with S. aureus USA300, at MOIs of 0.5 and 2.5, respectively. Cells were treated two hours after infection with DMSO (gray circle on Y axis), or dilutions of D66 from 40 μM. After 8 hours of infection, cells were lysed and plated for enumeration of CFU. Mean and SEM of biological duplicates performed with technical triplicates each with six dilutions of D66. The IC50 value that was calculatable is indicated."}, "[2]": {"tested_on": "5-day-old staphylococcal biofilms", "assay": "5-day-old staphylococcal biofilms", "conditions": "biofilms established 5 days in TSB, treated 18 hours, crystal violet", "protocol": "(A-D). For the indicated strain, biofilms established in TSB for 5-days were treated for 18 hours with DMSO, rifampin (1x MIC95=0.05 μg/mL), vancomycin (1x MIC95=1 μg/mL), or D66 (Table 1). The remaining biofilm extracellular matrix was stained with crystal violet and the A595 was measured. Mean and SEM of three biological replicates performed with technical triplicates are shown. Asterisks indicate P≤0.05 as determined by one-way ANOVA compared to DMSO."}}, "note": "Where “and” joins values, the source holds several entries; their conditions need not be identical. Equal entries are not always repeated. Where two headings read alike, the source gives them in different places.", "data": [{"smiles": "O=C(Nc1cc(Cl)cc(Cl)c1)N1CCCN(Cc2ccccc2)CC1", "note": "[D66]", "values": [{"measurement": "cMIC95 in LB", "setting": "E. coli K-12 ΔtolC; E. coli K-12 ΔtolC, LB", "value": 52, "unit": "µM"}, {"measurement": "cMIC95 in MHB", "setting": "E. coli K-12 ΔtolC; E. coli K-12 ΔtolC, MHB", "value": 43, "unit": "µM"}, {"measurement": "MIC50", "setting": "E. coli K-12 ΔtolC; read-out: MIC50 in LB", "value": "47 µM and 18 µg/mL"}, {"measurement": "MIC50", "setting": "E. coli K-12 ΔtolC; read-out: MIC50 in MHB", "value": "36 ± 1", "unit": "µM"}, {"measurement": "time elapsed prior to an increase in PI fluorescence", "setting": "S. Typhimurium; LB with PMB [0.5 μg/mL], D66 at 1x MIC95", "value": 45, "unit": "min"}, {"measurement": "time of treatment after which PI signal increased", "setting": "S. Typhimurium; LB with PMB [0.5 μg/mL], D66 at 2x MIC95, SDS [0.005%] positive control", "value": 10, "unit": "min"}, {"measurement": "PI signal increase", "setting": "S. Typhimurium; at 1x MIC, within 30 minutes", "value": "two-fold"}, {"measurement": "LDH release", "setting": "RAW 264.7 cells; RAW 264.7 cells infected with S. Typhimurium SL1344, 16 hours", "value": "reduced the percentage of cells that released LDH in a dose-dependent manner"}, {"measurement": "LDH release", "setting": "RAW 264.7 cells; uninfected RAW 264.7 cells, 16 hours", "value": "little effect on LDH release"}, {"measurement": "MIC", "setting": "Bacillus subtilis", "value": 89, "unit": "µM"}, {"measurement": "killing of mid-log phase S. aureus", "setting": "S. aureus FDA209", "value": "bactericidal"}, {"measurement": "number of viable staphylococcal persister cells", "setting": "[1]", "value": "did not reduce the number of viable staphylococcal persister cells in broth"}, {"measurement": "reduction of 5-day-old biofilms", "setting": "[2]", "value": "minimally effective"}]}]}
